# System: eyes
# Experiment: Corneal collagen cross-linking with riboflavin and sodium iodide; post-operative corneal haze
# Format: in vivo
# Settings: corneal collagen cross-linking utilizing 0.5% riboflavin and 0.015% (1 mmol) sodium iodide; over 200 eyes; compared to historical cross-linking procedures performed without sodium iodide
# Method: Corneal collagen cross-linking utilizing 0.5% riboflavin and 0.015% (1 mmol) sodium iodide was performed in over 200 eyes.
compound,measurement,value
[I-].[Na+] [sodium iodide],Post-operative corneal haze,minimal
